Drawing on ChEMBL document CHEMBL5325432, “Systematic study of 1,2,3-triazolyl sterols for the development of new drugs against parasitic Neglected Tropical Diseases” (Eur J Med Chem, 2023), this text covers IC50 and selectivity ratio for 8 compounds.

One data set relates to Trypanosoma cruzi. Kind of data set: Antiparasitic activity against Trypanosoma cruzi epimastigotes assessed as parasite growth inhibition incubated for 14 days by Alamar blue assay. The note with it: 336 h. The format is functional, organism-based. (Resazurin is reduced to fluorescent resorufin, in cell work by metabolically active cells.)
Data set [1] can be described thus: Selectivity index, ratio of IC50 for cytotoxicity against African green monkey Vero cells to IC50 for antiparasitic activity against Trypanosoma cruzi epimastigotes assessed as parasite growth inhibition. The format is toxicity, cell-based. The settings on record: read-out: Ratio IC50.
In another data set the test system is Leishmania donovani. The experiment in a line: Antileishmanial activity against Leishmania donovani S1 promastigotes assessed as parasite growth inhibition incubated for 72 hrs by Alamar blue assay. The format is functional, organism-based. The note with it: S1, 72 h.
Data set [2] in a line: Selectivity index, ratio of IC50 for cytotoxicity against African green monkey Vero cells to IC50 for antiparasitic activity against Trypanosoma brucei assessed as parasite growth inhibition. The settings on record: read-out: Ratio IC50. The format is toxicity, cell-based.
Data set [3] can be described thus: Cytotoxicity against African green monkey Vero cells incubated for 48 hrs. The format is toxicity, cell-based. The settings on record: African green monkey (Chlorocebus sabaeus).
A short description of data set [4]: Selectivity index, ratio of IC50 for cytotoxicity against African green monkey Vero cells to IC50 for antileishmanial activity against Leishmania donovani S1 promastigotes assessed as parasite growth inhibition. The format is toxicity, cell-based. The note with it: read-out: Ratio IC50.
The test system of another data set is Trypanosoma brucei. Kind of data set: Antiparasitic activity against Trypanosoma brucei assessed as parasite growth inhibition incubated for 3 days by Alamar blue assay. The format is functional, organism-based. The settings on record: 72 h.
Data set [5] can be described thus: Cytotoxicity against human MRC5 cells incubated for 7 days by MTT colorimetric assay. The format is toxicity, cell-based. Background: Tetrazolium assays rely on reduction of a dye to a coloured formazan, in cell work by metabolically active cells.

Each structure is given as a SMILES string.

As for `C[C@H](NCc1cn(CCCc2ccccc2)nn1)[C@H]1CC[C@H]2[C@@H]3CC=C4C[C@@H](O)CC[C@]4(C)[C@H]3CC[C@]12C`, the IC50 in the data set with Trypanosoma cruzi was determined as 2220 nM; in the data set on Leishmania donovani it was 1350 nM; in the data set on Trypanosoma brucei it was 1430 nM. In addition, the selectivity ratio was greater than 4.36 in data set [1], greater than 6.77 in data set [2] and greater than 7.14 in data set [4]. The compound also came in with an IC50 at 48 h in data set [3] greater than 9680 nM.
Regarding `CC(=O)O[C@H]1CC[C@@]2(C)C(=CC[C@H]3[C@@H]4CC[C@H]([C@H](C)NCc5cn(Cc6ccccc6)nn5)[C@@]4(C)CC[C@@H]32)C1`, the results for the IC50 in the data set on Trypanosoma cruzi, in the data set on Leishmania donovani and in the data set on Trypanosoma brucei were 2550 nM, 2540 nM and 200 nM, respectively. The results for the selectivity ratio in data set [1], in data set [2] and in data set [4] were greater than 3.69, greater than 47.1 and greater than 3.7, respectively. In addition, the IC50 at 48 h in data set [3] was greater than 9420 nM.
Turning to `CCCCCCCCn1cc(CNC[C@](C)(O)[C@H]2CC[C@H]3[C@@H]4CC=C5C[C@@H](O)CC[C@]5(C)[C@H]4CC[C@@]32C)nn1`, the IC50 in the data set with Trypanosoma cruzi stood at 8130 nM; in the data set with Leishmania donovani, 1460 nM; in the data set on Trypanosoma brucei, 630 nM. Also, the selectivity ratio in data set [1] was greater than 1.14; in data set [2], greater than 14.7; in data set [4], greater than 6.33. The compound also came in with an IC50 at 48 h in data set [3] greater than 9240 nM.
`C[C@]12CC[C@H]3[C@@H](CC=C4C[C@@H](O)CC[C@@]43C)[C@@H]1CC[C@@H]2[C@@](C)(O)CNCc1cn(Cc2ccccc2)nn1`: the IC50 is 8280 nM in the data set on Trypanosoma cruzi, 1950 nM with Leishmania donovani and 120 nM in the data set with Trypanosoma brucei. Moreover, the selectivity ratio is greater than 1.16 in data set [1], greater than 80.3 in data set [2] and greater than 4.95 in data set [4]. Moreover, the IC50 at 48 h in data set [3] is greater than 9640 nM.
Take `CCOC(=O)Cn1cc(CN[C@@H](C)[C@H]2CC[C@H]3[C@@H]4CC=C5C[C@@H](OC(C)=O)CC[C@]5(C)[C@H]4CC[C@]23C)nn1`: the IC50 with Trypanosoma cruzi was found to be 7800 nM; with Leishmania donovani, 4900 nM; in the data set with Trypanosoma brucei it was 660 nM. Further, the selectivity ratio was greater than 1.22 in data set [1], greater than 14.4 in data set [2] and greater than 1.94 in data set [4]. Also, the IC50 at 48 h in data set [3] is greater than 9490 nM.
In the case of `CC(=O)O[C@H]1CC[C@@]2(C)C(=CC[C@H]3[C@@H]4CC[C@H]([C@H](C)NCc5cn(CCCc6ccccc6)nn5)[C@@]4(C)CC[C@@H]32)C1`, the IC50 in the data set with Trypanosoma cruzi is 6300 nM; in the data set with Leishmania donovani, 2990 nM; with Trypanosoma brucei, 200 nM. For the same compound, the values for the selectivity ratio in data set [1], in data set [2] and in data set [4] were greater than 1.42, greater than 44.7 and greater than 2.99, respectively. In addition, the IC50 at 48 h in data set [3] is greater than 8950 nM.
For the compound `CC(C)=CCC/C(C)=C/Cn1cc(CNC[C@](C)(O)[C@H]2CC[C@H]3[C@@H]4CC=C5C[C@@H](O)CC[C@]5(C)[C@H]4CC[C@@]32C)nn1`, the IC50 was 9000 nM in the data set with Trypanosoma cruzi, 780 nM in the data set with Leishmania donovani and 650 nM in the data set with Trypanosoma brucei. Further, the selectivity ratio in data set [1] is greater than 0.98; in data set [2], greater than 13.6; in data set [4] it was greater than 11.4. In data set [3], this compound returned an IC50 at 48 h greater than 8850 nM.
Turning to `Nc1nc(N)nc(Nc2ccc([As]3SCC(CO)S3)cc2)n1` (stereo unspecified) [MELARSOPROL], the selectivity ratio in data set [2] was determined as 62.5. The IC50 at 7 days in data set [5] was determined as 12500 nM.

As usually defined, the IC50 is the concentration needed to halve the response being measured.
